How the values were obtained:
[1] = test system: Colletotrichum gloeosporioides; test: microbe, parasite or virus in culture; parameters: antifungal broth microdilution, visible growth, 28 °C; conditions: 48 h
Procedure: (§1) Four bacteria (Staphylococcus aureus ATCC6538, Bacillus subtilis ATCC 6633, Escherichia coli ATCC 25922, and Listeria monocytogenes ATCC 1911) were used for antibacterial evaluation for all compounds, referring to the previous method with ampicillin as a positive control. The bacteria inhibitory activity of all compounds was observed after 12 h in a constant temperature incubator at 37 °C. Five phytopathogens (Fusarium oxysporum f. sp. cubense, Fusarium spp., Peronophythora litchii, Colletotrichum gloeosporioides, and Hylocereus undatus) were used for antifungal evaluation for all compounds, referring to the previous broth microdilution method with carbendazim as a positive control. The fungal inhibitory activity of all compounds was observed after 48 h in a constant temperature incubator at 28 °C. […] Each test was performed in triplicate. The inhibitory activities of all compounds against five phytopathogenic fungi (Fusarium oxysporum f. sp. cubense, Fusarium spp., Peronophythora litchii, Colletotrichum gloeosporioides, and Hylocereus undatus) were evaluated using the broth microdilution method.

[2] = test system: Fusarium oxysporum f. sp. cubense; test: microbe, parasite or virus in culture; parameters: antifungal broth microdilution, visible growth, 28 °C; conditions: 48 h
Procedure: as §1

Peronophythora litchii = test: microbe, parasite or virus in culture; parameters: antifungal broth microdilution, visible growth, 28 °C; conditions: Phytophthora litchii, 48 h
Procedure: as §1

Fusarium spp. = test: microbe, parasite or virus in culture; conditions: 48 h, read-out: Fusarium spp. MIC
Procedure: as §1, with “triplicate.” for “triplicate. The inhibitory activities of all compounds against five phytopathogenic fungi (Fusarium oxysporum f. sp. cubense, Fusarium spp., Peronophythora litchii, Colletotrichum gloeosporioides, and Hylocereus undatus) were evaluated using the broth microdilution method.”

Staphylococcus aureus = test system: T1, Staphylococcus aureus; test: microbe, parasite or virus in culture; parameters: antibacterial 96-well microtiter plate assay, visible growth, 37 °C; conditions: 12 h
T1 construct: ATCC 6538
Source text: (§2) Four bacteria (Staphylococcus aureus ATCC6538, Bacillus subtilis ATCC 6633, Escherichia coli ATCC 25922, and Listeria monocytogenes ATCC 1911) were used for antibacterial evaluation for all compounds, referring to the previous method with ampicillin as a positive control. […] Five phytopathogens (Fusarium oxysporum f. sp. cubense, Fusarium spp., Peronophythora litchii, Colletotrichum gloeosporioides, and Hylocereus undatus) were used for antifungal evaluation for all compounds, referring to the previous broth microdilution method with carbendazim as a positive control. […] Each test was performed in triplicate. The inhibitory activity of all compounds against four bacteria (Staphylococcus aureus ATCC6538, Bacillus subtilis ATCC 6633, Escherichia coli ATCC 25922, and Listeria monocytogenes ATCC 1911) was evaluated using the 96-well microtiter plates method.

Bacillus subtilis = test system: T2, Bacillus subtilis; test: microbe, parasite or virus in culture; parameters: antibacterial 96-well microtiter plate assay, visible growth, 37 °C; conditions: 12 h
T2 construct: ATCC 6633
Source text: as §2

Listeria monocytogenes = test system: T3, Listeria monocytogenes; test: microbe, parasite or virus in culture; parameters: antibacterial 96-well microtiter plate assay, visible growth, 37 °C; conditions: 12 h
T3 construct: ATCC 1911
Source text: as §2

Escherichia coli = test system: T4, Escherichia coli; test: microbe, parasite or virus in culture; parameters: antibacterial 96-well microtiter plate assay, visible growth, 37 °C; conditions: 12 h
T4 construct: ATCC 25922
Source text: as §2

α-glucosidase = α-glucosidase inhibition assay with p-NPG as substrate; format: biochemical

C[C@@H]1Cc2c3c(cc(O)c2C(=O)O1)O[C@@]1(C)[C@@H](O)C[C@H]2C(C)(C)C(=O)CC[C@]2(C)[C@@H]1C3 [compound 7, chrodrimanin H]
> 128 µg/mL: MIC [1] | MIC [2] | MIC (Peronophythora litchii) | MIC (Fusarium spp.) | MIC (Staphylococcus aureus) | MIC (Bacillus subtilis) | MIC (Listeria monocytogenes) | MIC (Escherichia coli)

CO[C@@H]1C[C@H]([C@H](C)/C=C/[C@H](C)C(C)C)[C@@]2(C)CC[C@H]3C(=C12)C=CC1=CC(=O)CC[C@@]13C [compound 16, 15β-methoxy-ergosta-4,6,8(14),22E-tetraene-3-one]
> 128 µg/mL: MIC [1] | MIC [2] | MIC (Peronophythora litchii) | MIC (Fusarium spp.) | MIC (Staphylococcus aureus) | MIC (Bacillus subtilis) | MIC (Listeria monocytogenes) | MIC (Escherichia coli)

CC(C)[C@@H](C)/C=C/[C@@H](C)[C@H]1CC[C@H]2C3=C(CC[C@]12C)[C@@]1(C)CCC(=O)C=C1C=C3 [compound 9, ergosta-4,6,8,22E-tetraene-3-one]
> 128 µg/mL: MIC [1] | MIC [2] | MIC (Peronophythora litchii) | MIC (Fusarium spp.) | MIC (Staphylococcus aureus) | MIC (Bacillus subtilis) | MIC (Listeria monocytogenes) | MIC (Escherichia coli)

CC1=CC(=O)C(C)=C2O[C@@]3(C[C@]12C)[C@@H](C)CC[C@H]1C(C)(C)[C@@H](O)CC[C@@]13C [compound 5, chermesin A]
> 128 µg/mL: MIC [1] | MIC [2] | MIC (Peronophythora litchii) | MIC (Fusarium spp.) | MIC (Bacillus subtilis) | MIC (Listeria monocytogenes) | MIC (Escherichia coli)
128 µg/mL: MIC (Staphylococcus aureus)

COC(=O)CC[C@@]1(C)[C@H](C(C)(C)O)CC[C@H](C)[C@@]12C[C@@]1(C)C(=C(C)C(=O)[C@@H](C(=O)OC)[C@@H]1C)O2 [compound 4, asnovolin C]
> 128 µg/mL: MIC [1] | MIC [2] | MIC (Peronophythora litchii) | MIC (Fusarium spp.) | MIC (Staphylococcus aureus) | MIC (Bacillus subtilis) | MIC (Listeria monocytogenes) | MIC (Escherichia coli)

CC(C)[C@@H](C)/C=C/[C@@H](C)[C@H]1CC[C@@]2(O)C3=CC(=O)C4=CC(=O)CC[C@]4(C)[C@H]3CC[C@]12C [compound 10, 14α-hydroxyergosta-4,7,22E-triene-3,6-dione]
> 128 µg/mL: MIC [1] | MIC [2] | MIC (Peronophythora litchii) | MIC (Fusarium spp.) | MIC (Staphylococcus aureus) | MIC (Bacillus subtilis) | MIC (Listeria monocytogenes) | MIC (Escherichia coli)
111 µM: IC50 (α-glucosidase)

CC(=O)O[C@@H]1c2c3c(cc(O)c2C(=O)O[C@@H]1C)O[C@]1(C)[C@H](C3)[C@@]2(C)CCC(=O)C(C)(C)[C@@H]2C[C@@H]1O [compound 8, thailandolide B]
> 128 µg/mL: MIC [1] | MIC [2] | MIC (Peronophythora litchii) | MIC (Fusarium spp.) | MIC (Staphylococcus aureus) | MIC (Bacillus subtilis) | MIC (Listeria monocytogenes) | MIC (Escherichia coli)

CC1(C)S[C@@H]2[C@H](NC(=O)[C@H](N)c3ccccc3)C(=O)N2[C@H]1C(=O)O [Ampicillin]
< 1 µg/mL: MIC (Staphylococcus aureus) | MIC (Bacillus subtilis) | MIC (Listeria monocytogenes) | MIC (Escherichia coli)

CC(C)[C@@H](C)/C=C/[C@@H](C)[C@H]1CC(=O)C2=C3C=CC4=CC(=O)CC[C@]4(C)[C@@]3(O)CC[C@@]21C [compound 17, ganodermaside C]
> 128 µg/mL: MIC [1] | MIC [2] | MIC (Peronophythora litchii) | MIC (Fusarium spp.) | MIC (Staphylococcus aureus) | MIC (Bacillus subtilis) | MIC (Listeria monocytogenes) | MIC (Escherichia coli)

CC(C)[C@@H](C)/C=C/[C@@H](C)[C@H]1C[C@H](O)C2=C3C=CC4=CC(=O)CC[C@]4(C)C3CC[C@@]21C (stereo partly shown) [compound 18, ganodermaside A]
> 128 µg/mL: MIC [1] | MIC [2] | MIC (Peronophythora litchii) | MIC (Fusarium spp.) | MIC (Staphylococcus aureus) | MIC (Bacillus subtilis) | MIC (Listeria monocytogenes) | MIC (Escherichia coli)

C[C@@H]1Cc2c3c(cc(O)c2C(=O)O1)O[C@@]1(C)[C@@H](O)C[C@H]2C(C)(C)C(=O)C=C[C@]2(C)[C@@H]1C3 [compound 6, chrodrimanin E]
> 128 µg/mL: MIC [1] | MIC [2] | MIC (Peronophythora litchii) | MIC (Fusarium spp.) | MIC (Staphylococcus aureus) | MIC (Bacillus subtilis) | MIC (Listeria monocytogenes) | MIC (Escherichia coli)

COC(=O)C1=C(C)C2(C)CC3(OC2=C(C)C1=O)C(C)CCC1C(C)(C)OC(=O)CCC13C (stereo not shown) [compound 3, asnovolin C 5′6′-dehydro hydrogen]
> 128 µg/mL: MIC [1] | MIC [2] | MIC (Peronophythora litchii) | MIC (Fusarium spp.) | MIC (Staphylococcus aureus) | MIC (Bacillus subtilis) | MIC (Listeria monocytogenes) | MIC (Escherichia coli)

CC(C)C(C)C=CC(C)C1CCC2C3CC(O)C4=CC(=O)CCC4(C)C3CCC12C (stereo not drawn) [compound 13, ergosta-6α-hydroxy-4,22E-dien-3-one]
> 128 µg/mL: MIC [1] | MIC [2] | MIC (Peronophythora litchii) | MIC (Fusarium spp.) | MIC (Staphylococcus aureus) | MIC (Bacillus subtilis) | MIC (Listeria monocytogenes) | MIC (Escherichia coli)

CC1=C2O[C@@]3(C[C@]2(C)C(C)=C(C(=O)O)C1=O)[C@@H](C)CC[C@H]1C(C)(C)OC(=O)CC[C@@]13C [compound 2, asnovolin I]
> 128 µg/mL: MIC [1] | MIC [2] | MIC (Peronophythora litchii) | MIC (Fusarium spp.) | MIC (Staphylococcus aureus) | MIC (Bacillus subtilis) | MIC (Listeria monocytogenes) | MIC (Escherichia coli)

COC(=O)C1C(=O)C(C)=C2OC3(CC2(C)C1C)C(C)C(O)CC1C(C)(C)OC(=O)CCC13C (stereo not shown) [compound 1, asnovolin H]
> 128 µg/mL: MIC [1] | MIC [2] | MIC (Peronophythora litchii) | MIC (Fusarium spp.) | MIC (Staphylococcus aureus) | MIC (Bacillus subtilis) | MIC (Listeria monocytogenes) | MIC (Escherichia coli)

COC(=O)Nc1nc2ccccc2[nH]1 [Carbendazim]
< 1 µg/mL: MIC [1] | MIC [2] | MIC (Peronophythora litchii) | MIC (Fusarium spp.)

Source: paper PMC9784055, “Meroterpenoids and Steroids from the Marine-Derived Fungus Trametes sp. ZYX-Z-16” (Molecules, 2022)
